From patent publication US9408832B2, “LIM kinasemodulating agents for neurofibromatoses therapy and methods for screening for same” (University of Central Florida Research Foundation, Inc., priority 2012, dated 2016)
Values joined by “and” are separate entries in the source; they are usually repeats but may differ in a detail not shown here. Equal entries are not always repeated. “Also recorded” adds a separate entry of the source.

What was measured:
[1] = test system: mouse merlin-null Schwann cells; experiment: BrdU/7-AAD flow cytometry assay; format: cell-based
Protocol: (§1) FIGS. 11A-D. Phenotypic Proliferation Assays. (A) Merlin-null Schwann cells (384-well format) were treated with the indicated compounds and concentrations for 24 hours and labeled with EdU during the last 9 hours. Incorporation of EdU into S-phase cells was read on a Biotek H1 Hybrid reader. (B) The plate was also imaged with a Trophos high resolution fluorescence Plate Runner. (C). […] The cell population profile is shown and was analyzed using the ModFit program. (D). Merlin-null Schwann cells were grown as in C but were labeled with BrdU during the final 3 hours of treatment then stained with 7AAD. The distribution of BrdU- and 7AAD-labelled cells is shown and was analyzed with Diva program. The BD Cantos II flow cytometer was used above.
In yet another aspect, identification of compounds that affect proliferation of Merlin-null mouse Schwann cells can be performed by conducting a Click-iT EdU Microplate Assay (Life Technologies) in the 384 well-plate format and then follow-up with BrdU/7AAD and propidium iodide flow cytometer assays. […] The EdU-Click-iT assay uses a 2-step procedure to identify cells in the S-phase of the cell cycle. EdU (5-ethynyl-2′-deoxyuridine) is a DNA analog that has been modified with an alkyne and is incorporated by cells in S phase. It reacts with Alexa-Fluor-Oregon green azide in the presence of a copper solution to form a covalent bond. Fluorescence emission is measured on a Hybrid HT plate reader (FIG. 11A) as well as on a Trophos Plate RUNNER HD that captures images of the wells (FIG. 11B). This allows confirmatory cell counts to be obtained. Cell cycle profiles were collected using propidium iodide (PI) labeling of log-phase growing Merlin-null Schwann cells (FIG. 11C). The results were confirmed by acquiring the ratio of BrdU-positive to total 7AAD-labelled cells in an independent assay (FIG. 11D).

caspase 3/7 activity = experiment: Caspase-3/7 activity (Apo-ONE Homogeneous Assay) in merlin-null Schwann cells; format: cell-based, mouse; conditions: for mechanism of apoptotic death in context of the Apo-One assay result: 384-well format, 8 hours
Protocol: (§2) FIGS. 10 A-C. Phenotypic Apoptosis Assays. (A). Merlin-null Schwann cells in a 384-well format were incubated with the indicated compounds for 8 hours. Caspase-3/7 activity was measure with Apo-ONE Homogeneous Assay (Promega). n=32 wells. (B). Merlin-null Schwann cells in a 6-well format were treated with compounds (10 uM) for 24 hours. Membrane asymmetry was detected with Violet Ratiometric assay and read on a BD Cantos II flow cytometer. (C). Population distribution for B is shown.
In yet another aspect, compounds may be identified which induce programmed cell death or inhibit proliferation of Merlin-null Schwann cells. Merlin-pathway assays may be conducted to identify the subset of compounds that modulate the activity of known merlin pathways. The effector caspase cascade is activated in many extrinsic and intrinsic cell death pathways^29. The CPCCG has an established HTS assay that measures caspase-3 activity based on the cleavage and enzymatic degradation of a fluorescent substrate containing the amino acid motif DEVD (DEVD-7-amino-4-trifluoromethyl coumarin, DEVD-AFC). Briefly, Merlin-null Schwann cells may be dispensed and test compounds added, and incubated as described for the primary screening assay. The effect of compounds on caspase-3 activity can be measured by first lysing the cells and centrifuging to pellet the debris. Next, 20 μl of 2× reaction buffer may be added, followed by 1 μL, DTT (0.01M final). Finally, 1uL of DEVD-AFC may be added and the plate may be incubated at 37° C. for 1.5 h. Enzyme activity may be measured on an Envision plate reader at Ex400 nm/Em505 nm. The enzyme activity may be calculated from a standard curve generated using recombinant caspase-3 enzyme (R&D System, Inc.) and expressed as fold-increase in activity. […] Transfer of phosphatidylserine and phosphatidylethanolamine from the inner to the outer leaflet of the plasma membrane changes the membrane potential that is detected by F2N12S. […]

[2] = test system: mouse merlin-null Schwann cells; experiment: Violet Ratiometric membrane asymmetry / dead cell apoptosis flow cytometry assay; format: cell-based; conditions: 24 hours
Protocol: as §2
In yet another aspect, compounds may be identified which induce programmed cell death or inhibit proliferation of Merlin-null Schwann cells. Merlin-pathway assays may be conducted to identify the subset of compounds that modulate the activity of known merlin pathways. The effector caspase cascade is activated in many extrinsic and intrinsic cell death pathways^29. […] The effect of compounds on caspase-3 activity can be measured by first lysing the cells and centrifuging to pellet the debris. […] Enzyme activity may be measured on an Envision plate reader at Ex400 nm/Em505 nm. The enzyme activity may be calculated from a standard curve generated using recombinant caspase-3 enzyme (R&D System, Inc.) and expressed as fold-increase in activity. […] Transfer of phosphatidylserine and phosphatidylethanolamine from the inner to the outer leaflet of the plasma membrane changes the membrane potential that is detected by F2N12S. […]

[3] = test system: cofilin phosphorylation (substrate for LIMK); experiment: Western blot of cofilin phosphorylation in normal rat Schwann cells; format: cell-based; conditions: 6 hours
[4] = test system: mouse merlin-null Schwann cells; experiment: MultiTox-Fluor cell viability assay with merlin-null Schwann cells (NF2-MTC)
Protocol: To ascertain whether this cell line was amenable to a HTS platform, the present inventors tested cell adherence and growth on several types of 384-well plates. Wells were seeded at varying cell densities (2,500-20,000 cells/well) and the ratio of live:dead cells was measured 24 hours later using the MultiTox-Fluor Multiplex Cytotoxicity Assay (Promega). This assay uses fluorescent probes to measure protease activities from live and dying cells. […] Therefore, the DMSO concentration for screening will be maintained at 0.5%.

cofilin phosphorylation = experiment: Cofilin phosphorylation in mouse Schwann cells (summary statement); format: cell-based
[5] = test system: mouse merlin-null Schwann cells; experiment: Propidium iodide flow cytometry cell cycle assay; format: cell-based
Protocol: as §1
In yet another aspect, identification of compounds that affect proliferation of Merlin-null mouse Schwann cells can be performed by conducting a Click-iT EdU Microplate Assay (Life Technologies) in the 384 well-plate format and then follow-up with BrdU/7AAD and propidium iodide flow cytometer assays. […] The EdU-Click-iT assay uses a 2-step procedure to identify cells in the S-phase of the cell cycle. […] Fluorescence emission is measured on a Hybrid HT plate reader (FIG. 11A) as well as on a Trophos Plate RUNNER HD that captures images of the wells (FIG. 11B). […]

[6] = test system: mouse merlin-null Schwann cells; experiment: Crystal Violet cell number assay; format: cell-based
[7] = 5 μM, 24 hr, BrdU for the last 3 hr

N#C/C(=C\c1ccc(-c2cc(Cl)ccc2Cl)o1)C(=O)Nc1cccc2ncccc12 [AGK2]
anti-proliferative effects on the cells ([1]; 24 hours of drug treatment, S-phase labelling for the final 3 hours): did not reveal clear anti-proliferative effects | mechanism of apoptotic death in context of the Apo-One assay result (caspase 3/7 activity): caspase3/7-independent

CC(C)C(=O)Nc1ncc(-c2cc(C(F)F)nn2-c2c(Cl)cccc2Cl)s1 [BMS-5]
number of cells with plasma membrane asymmetry ([2]; 2 μM): does not significantly increase | IC50 ([3]; Western blot, read-out: amount needed to reduce cofilin phosphorylation by 50% of the untreated control): 200 nM | cofilin phosphorylation (dose response, in words) ([3]; increasing BMS-5): reduces the amount of cofilin phosphorylation; also recorded: cofilin phosphorylation decreases | MTC number / proliferation with increasing concentration (in words) ([4]; 24 hours, various inhibitor concentrations): inhibited proliferation; also recorded: dose-respondent inhibition | MTC viability compared to DMSO control (in words) ([4]; BMS-5 5 μM, 24 hours): reduced MTC viability | EC50 ([4]; read-out: EC50: concentration that reduces the number of merlin-null Schwann cells by 50% of control, 24 hours, 96-well format, 32 replicates/concentration): 1960 nM and ~2000 nM | cofilin phosphorylation in mouse Schwann cells (in words) (cofilin phosphorylation): reduced cofilin phosphorylation | cells in G0/G1 and S phase [1, 7]: massive depletion | number of cells in G2/M [1, 7]: moderate increase; also recorded: moderately increase | mechanism of apoptotic death in context of the Apo-One assay result (caspase 3/7 activity): caspase3/7-independent | difference in caspase 3/7 activity versus untreated or DMSO controls (caspase 3/7 activity; 8 hours incubation, increasing doses): no significant difference | increase of cells in G2/M phase ([5]; 5 μM, 17 hr, Propidium Iodine staining): more than 100% | cell cycle profile (PI labeling and BrdU profiles, in words) ([5]; 5 uM, 22 hours): accumulate in G2/M | change in the number of cells after 72 hours ([6]; 2 μM): no change | cell number compared to untreated or DMSO controls ([6]; 1 and 2 μM, 72 hours): decrease in the cell number

COc1ccc2c(c[n+](C)c3c4cc5c(cc4ccc23)OCO5)c1OC.[Cl-] [CHE, cheleryithrine chloride]
apoptotic death (Q1+Q3), share of Merlin-null Schwann cells ([2]; 10 uM, 6-well format, flow cytometer): 93%

FC(F)(F)c1ccc(/C=C/c2nc(COc3ccc(CCCCn4ccnn4)cc3)co2)cc1 [TAK 165]
MTC viability compared to DMSO control (in words) ([4]; TAK 165 50 nM, positive control): effective in reducing MTC viability

CO[C@H]1C[C@@H]2CC[C@@H](C)[C@@](O)(O2)C(=O)C(=O)N2CCCC[C@H]2C(=O)O[C@H]([C@H](C)C[C@@H]2CC[C@@H](O)[C@H](OC)C2)CC(=O)[C@H](C)/C=C(\C)[C@@H](O)[C@@H](OC)C(=O)[C@H](C)C[C@H](C)/C=C/C=C/C=C/1C [rapamycin, Rapamycin]
viability of cells, % of the DMSO control ([4]; 50 μM rapamycin, 384-well plate, 5,000 cells/well): 20+/−1.4%
